{
  "source": "patent US8314255B2",
  "about": "“Use of phthalimide and/or sulphonamide derivatives in the treatment of diseases which require reducing the TNF- α levels and an exogenous source of nitric oxide, phthalimide derivatives, sulphonamide derivatives, and a method for obtaining a sulphonamide derivative” (priority 2007, dated 2012)",
  "key": {"[1]": {"system": "mouse ear edema induced by capsaicin", "assay": "Mouse ear edema assay induced by capsaicin", "type": "in vivo", "details": "300 μmol/Kg i.p., capsaicin 250 μg/ear 1 hour after administration", "method": "This assay is characterized by an acute inflammatory response of the ear, with development of edema, and it was performed in order to evaluate the anti-inflammatory activity of the synthesized compounds.\nIn this assay, indomethacin was used as a control at 100 μmol/Kg, and the phthalimide derivatives were firstly evaluated at 300 μmol/Kg via i.p. From table 4, it can be observed that compounds IC and IE show an ear edema inhibition percentage higher than 64%. […] The other compounds, however, show a similar activity when compared to indomethacin (FIG. 01), taking into consideration the standard error.\nThis assay was performed using Swiss mice from both genders weighing from 18 to 30 grams. The animals were fasted for 8 hours with free access to water. This assay consists in locally administering (right ear) 20 μl of a capsaicin solution (250 μg/ear) diluted in acetone, 1 hour after the i.p. administration (diluted in 0.5% gum arabic). The left ear (control) received the carrier in which capsaicin was diluted (acetone) and the right ear received capsaicin. This assay is characterized by an acute inflammatory response of the ear, with development of edema. The animals were sacrificed and their ears were weighted to obtain the inflammation index. A biopsy (8 mm in diameter) of the ear was carried out. Next, the weights of the inflamed ears were compared against the weights of the contralateral ear (control ear) which were not treated with the phlogistic agent. The edema inhibition percentage was calculated by subtracting the ear treated with the carrier by that treated with capsaicin from each group of animals treated with the test substances, and then it was divided by the difference between the groups of the irritating agents and the control groups."}, "[2]": {"system": "Salmonella typhimurium TA102", "assay": "AMES test, mutagenic evaluation in Salmonella typhimurium TA102 strain with/without metabolic activation (S9)", "type": "cell-based", "method": "The procedure was firstly developed by (MARON, D. M. and AMES, B. N. Mut. Res. v. 113, pp. 173-215, 1983)\nFor this assay, Salmonella typhimurium TA100 and TA102 strains from the mutagenicity laboratory of the “Faculdade de Ciências Farmacêuticas—UNESP Araraquara” were used. Such strains have the following characteristics: (AMES, 1983)\nThe positive controls are mutagenic compounds specific for each strain and test condition, with 25 μL/plate of sodium azide (1.25 μg/plate) and 100 μL of mitomycin (0.5 μg/plate) being the controls for TA100 and TA102, respectively, in the absence of metabolic activation. For assays with metabolic activation, the positive control for TA100 is 50 μL 2-antramine (1.25 μg/plate) and for TA102 it is 50 μL 2-aminofluorene (1.25 μg/plate).\nThe preincubation method was used.\nIn laminar flow, Salmonella typhimurium (TA100 and TA 102) strains were inoculated individually with a platinum loop, in the respective nutrient broths and maintained at 37° C., under constant stirring (160 rpm) during 14 hours, in order to achieve a density of 1 to 2×10^9 bacteria/mL.\nDifferent concentrations of the compounds were added into 100 μL of 0.2M phosphate buffer pH 7.4 (or 500 μL of the mixture S9 in metabolic activation assays) and incubated for 20-30 minutes at 37° C. Solutions containing the compounds had DMSO as the solvent. Thereafter, 2 mL of top agar supplemented with traces of histidine and biotin was added, homogenized and plated in glycosylated minimum medium. After solidification of the top agar, the plates were incubated for 48 hours at a 37° C. Then, the counting of the number of revertant colonies per plate was performed. All tested concentrations, positive and negative controls were run in triplicate.\nAfter 48 hours, the revertant colonies were counted manually, and the protoCOL Colony Counter Version 3.15.630 (1998-2001) SYNBIOSIS LTD system was used for the positive control.\nThe final data obtained from the assay was analyzed using the statistical software Salanal (Salmonella Assay Analysis) version 1.0 from the Research Triangle Institute, RTP, North Carolina, USA. Such software allows the dose-response effect to be evaluated by means of analysis of variance (ANOVA-test F) computations between the measurement of the number of revertants at the different tested concentrations (doses) and the negative control, followed by a linear regression. The software model chosen for analyzing the data was Bernstein's (BERNSTEIN, L. et al. Mutat. Res. v. 97, p. 267-281, 1982). The slope of the straight line from the linear portion of the dose-response curve is also provided by this software and corresponds to the number of revertants induced per measurement unit of the analyzed sample.\nFrom the results, the mutagenicity ratio (MR) was computed for each analyzed dose from each compound. MR is given by the following equation:\nMR=average number of revertants per test plate (spontaneous+induced revertants) […] average number of revertants per plate of the negative control (spontaneous revertants)\nThe spontaneous growing means that the number of revertants which developed on the plate, regardless of being induced or not, wherein values higher or equal to 2 are considered as a positive response (VALENT, G. V. et al. Env. Toxicol. Water Quality. v. 8, p. 371-381, 1993).\nThe mutagenicity test with metabolic activation system was performed with a microsomal fraction S9 (S9 mix) prepared from a liver homogenizate from Sprague Dawley rats, previously treated with Aroclor 1254, acquired in the freeze-dried form.\nThe procedure for this assay is the same, however, instead of the buffer, 500 μL of the S9 mixture should be added.\nThe S9 mixture has a viability of 4 hours from preparation when put on ice. The plates are then incubated for 48 hours at 37° C. After the required time has elapsed, the counting of the revertant colonies was carried out. All tested concentrations, positive and negative controls were run in triplicate."}},
  "data": [
    {"smiles": "O=C1c2ccccc2C(=O)N1CO[N+](=O)[O-]", "note": "[Compound IA, (1,3-dioxo-1,3-dihydro-2H-isoindol-2-yl)methyl nitrate]", "values": [
      {"measurement": "Average inhibition % (ear edema)", "setting": "[1]", "value": 53.75, "unit": "%"},
      {"measurement": "concentration above which toxicity is observed (reduction on the number of revertants per plate)", "setting": "[2]; TA102 (+S9)", "value": "higher than 56 nmol"},
      {"measurement": "mutagenicity ratio (MR)", "setting": "[2]; TA 102, +S9, 7.25 nmol/plate", "value": 1.4},
      {"measurement": "number of revertants per plate", "setting": "[2]; TA 102, +S9, 7.25 nmol/plate", "value": "298 ± 11.3", "unit": "revertants/plate"},
      {"measurement": "mutagenicity ratio (MR)", "setting": "[2]; TA 102, +S9, 14.5 nmol/plate", "value": 1.5},
      {"measurement": "number of revertants per plate", "setting": "[2]; TA 102, +S9, 14.5 nmol/plate", "value": "320.8 ± 17", "unit": "revertants/plate"},
      {"measurement": "mutagenicity ratio (MR)", "setting": "[2]; TA 102, +S9, 29 nmol/plate", "value": 1.8},
      {"measurement": "number of revertants per plate", "setting": "[2]; TA 102, +S9, 29 nmol/plate", "value": "385 ± 21.8", "unit": "revertants/plate"},
      {"measurement": "mutagenicity ratio (MR)", "setting": "[2]; TA 102, +S9, 56 nmol/plate", "value": 2.34},
      {"measurement": "number of revertants per plate", "setting": "[2]; TA 102, +S9, 56 nmol/plate", "value": "499 ± 8.9", "unit": "revertants/plate"},
      {"measurement": "mutagenicity ratio (MR)", "setting": "[2]; TA 102, +S9, 112 nmol/plate", "value": 1.64},
      {"measurement": "number of revertants per plate", "setting": "[2]; TA 102, +S9, 112 nmol/plate", "value": "351.2 ± 12", "unit": "revertants/plate"},
      {"measurement": "mutagenicity ratio (MR)", "setting": "[2]; TA 102, −S9, 7.25 nmol/plate", "value": 1.33},
      {"measurement": "number of revertants per plate", "setting": "[2]; TA 102, −S9, 7.25 nmol/plate", "value": "263.7 ± 15", "unit": "revertants/plate"},
      {"measurement": "mutagenicity ratio (MR)", "setting": "[2]; TA 102, −S9, 14.5 nmol/plate", "value": 1.26},
      {"measurement": "number of revertants per plate", "setting": "[2]; TA 102, −S9, 14.5 nmol/plate", "value": "249.7 ± 12", "unit": "revertants/plate"},
      {"measurement": "mutagenicity ratio (MR)", "setting": "[2]; TA 102, −S9, 29 nmol/plate", "value": 1.32},
      {"measurement": "number of revertants per plate", "setting": "[2]; TA 102, −S9, 29 nmol/plate", "value": "261.3 ± 20", "unit": "revertants/plate"},
      {"measurement": "mutagenicity ratio (MR)", "setting": "[2]; TA 102, −S9, 56 nmol/plate", "value": 0.77},
      {"measurement": "number of revertants per plate", "setting": "[2]; TA 102, −S9, 56 nmol/plate", "value": "153 ± 21", "unit": "revertants/plate"},
      {"measurement": "mutagenicity ratio (MR)", "setting": "[2]; TA 102, −S9, 112 nmol/plate", "value": 0.71},
      {"measurement": "number of revertants per plate", "setting": "[2]; TA 102, −S9, 112 nmol/plate", "value": "141 ± 18", "unit": "revertants/plate"}
    ]},
    {"smiles": "O=C1c2ccccc2C(=O)N1c1ccc(CCO[N+](=O)[O-])cc1", "note": "[Compound IE, 2-[4-(1,3-dioxo-1,3-dihydro-2H-isoindol-2-yl)phenyl]ethyl nitrate]", "values": [
      {"measurement": "mutagenicity ratio (MR)", "setting": "[2]; TA 102, +S9, 0.12 μmol/plate", "value": 0.9},
      {"measurement": "number of revertants per plate", "setting": "[2]; TA 102, +S9, 0.12 μmol/plate", "value": "335.3 ± 11", "unit": "revertants/plate"},
      {"measurement": "mutagenicity ratio (MR)", "setting": "[2]; TA 102, +S9, 0.25 μmol/plate", "value": 0.8},
      {"measurement": "number of revertants per plate", "setting": "[2]; TA 102, +S9, 0.25 μmol/plate", "value": "295.3 ± 28", "unit": "revertants/plate"},
      {"measurement": "mutagenicity ratio (MR)", "setting": "[2]; TA 102, +S9, 0.5 μmol/plate", "value": 1.09},
      {"measurement": "number of revertants per plate", "setting": "[2]; TA 102, +S9, 0.5 μmol/plate", "value": "406 ± 14.1", "unit": "revertants/plate"},
      {"measurement": "mutagenicity ratio (MR)", "setting": "[2]; TA 102, +S9, 1 μmol/plate", "value": 1.25},
      {"measurement": "number of revertants per plate", "setting": "[2]; TA 102, +S9, 1 μmol/plate", "value": "465 ± 10.6", "unit": "revertants/plate"},
      {"measurement": "mutagenicity ratio (MR)", "setting": "[2]; TA 102, +S9, 2 μmol/plate", "value": 1.2},
      {"measurement": "number of revertants per plate", "setting": "[2]; TA 102, +S9, 2 μmol/plate", "value": "447 ± 19.8", "unit": "revertants/plate"},
      {"measurement": "mutagenicity ratio (MR)", "setting": "[2]; TA 102, −S9, 0.12 μmol/plate", "value": 1.29},
      {"measurement": "number of revertants per plate", "setting": "[2]; TA 102, −S9, 0.12 μmol/plate", "value": "256 ± 6.9", "unit": "revertants/plate"},
      {"measurement": "mutagenicity ratio (MR)", "setting": "[2]; TA 102, −S9, 0.25 μmol/plate", "value": 1.32},
      {"measurement": "number of revertants per plate", "setting": "[2]; TA 102, −S9, 0.25 μmol/plate", "value": "262 ± 19.1", "unit": "revertants/plate"},
      {"measurement": "mutagenicity ratio (MR)", "setting": "[2]; TA 102, −S9, 0.5 μmol/plate", "value": 1.35},
      {"measurement": "number of revertants per plate", "setting": "[2]; TA 102, −S9, 0.5 μmol/plate", "value": "266.7 ± 18", "unit": "revertants/plate"},
      {"measurement": "mutagenicity ratio (MR)", "setting": "[2]; TA 102, −S9, 1 μmol/plate", "value": 1.34},
      {"measurement": "number of revertants per plate", "setting": "[2]; TA 102, −S9, 1 μmol/plate", "value": "265.7 ± 10", "unit": "revertants/plate"},
      {"measurement": "mutagenicity ratio (MR)", "setting": "[2]; TA 102, −S9, 2 μmol/plate", "value": 1.02},
      {"measurement": "number of revertants per plate", "setting": "[2]; TA 102, −S9, 2 μmol/plate", "value": "201 ± 4.7", "unit": "revertants/plate"}
    ]}
  ]
}
